From ChEMBL document CHEMBL4000221 (Bioorg Med Chem Lett, 2017)

Columns and labels:
Homo sapiens [1] = species on record: Homo sapiens; test: Selectivity ratio of EC50 for inhibition of [3H]-S-citalopram dissociation from SERT allosteric modulator site (S2) (unknown origin) expressed in African green monkey COS1 cell membranes to IC50 for [3H]5-HT uptake by SERT primary site (S1) (unknown origin) expressed in African green monkey COS1 cells; type: cell-based
[2] = target: T1, Sodium-dependent serotonin transporter (Homo sapiens, UniProt P31645); test: Inhibition of [3H]5-HT uptake by SERT primary site (S1) (unknown origin) expressed in African green monkey COS1 cells after 10 mins by TopCount scintillation counting method; type: cell-based
T1 sequence (P31645 whole entry): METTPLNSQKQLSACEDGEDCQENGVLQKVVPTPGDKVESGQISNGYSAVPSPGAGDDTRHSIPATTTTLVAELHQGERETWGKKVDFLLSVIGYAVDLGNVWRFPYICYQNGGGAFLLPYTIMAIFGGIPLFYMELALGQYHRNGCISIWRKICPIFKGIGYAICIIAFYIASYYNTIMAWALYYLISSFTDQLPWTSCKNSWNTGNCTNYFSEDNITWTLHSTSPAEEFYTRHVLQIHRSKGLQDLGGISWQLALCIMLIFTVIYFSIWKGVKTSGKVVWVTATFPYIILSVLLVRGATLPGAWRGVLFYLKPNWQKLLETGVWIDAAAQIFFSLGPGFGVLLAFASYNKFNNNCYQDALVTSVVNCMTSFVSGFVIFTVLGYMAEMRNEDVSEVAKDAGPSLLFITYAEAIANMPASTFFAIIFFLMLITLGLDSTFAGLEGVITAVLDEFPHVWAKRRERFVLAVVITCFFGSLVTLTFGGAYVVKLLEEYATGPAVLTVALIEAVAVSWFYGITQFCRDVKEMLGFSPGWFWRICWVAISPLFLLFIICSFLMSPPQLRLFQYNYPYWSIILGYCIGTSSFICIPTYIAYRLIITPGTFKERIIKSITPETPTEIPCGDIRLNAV

[3] = target: T1, Sodium-dependent serotonin transporter
[4] = target: T1, Sodium-dependent serotonin transporter; remark: listed apart in the source
Homo sapiens [5] = species on record: Homo sapiens; test: Selectivity ratio of EC50 for inhibition of [3H]-S-citalopram dissociation from human SERT allosteric modulator site (S2) expressed in African green monkey COS7 cell membranes to IC50 for displacement of [3H]-S-citalopram from human SERT primary site (S1) expressed in African green monkey COS7 cell membranes
[6] = target: T1, Sodium-dependent serotonin transporter; remark: listed apart in the source

| Compound | Selectivity ratio (Homo sapiens [1]) | IC50 [2] [nM] | EC50 [3] [nM] | IC50 [4] [nM] | Selectivity ratio (Homo sapiens [5]) | EC50 [6] [nM] |
| --- | --- | --- | --- | --- | --- | --- |
| CN(C)CCCC1(c2ccc(F)cc2)OCc2ccc3ccccc3c21 (stereo not drawn) | 3200 | 12 | 38000 | – | – | – |
| CN(C)CCCC1(c2cc(Cl)cc(Cl)c2)OCc2ccccc21 (single isomer, unassigned; enantiomer 2) [listing 1 of 2 here] | – | 300 | 20000 | – | – | – |
| CN(C)CCCC1(c2ccc3ccccc3c2)OCc2cc(C#N)ccc21 (stereo in doubt; 1) [listing 1 of 2 here] | 2000 | – | – | – | – | – |
| CN(C)CCCC1(c2cc(Cl)cc(Cl)c2)OCc2ccccc21 (stereo in doubt; 4) [listing 1 of 2 here] | 44 | – | – | – | – | – |
| CN(C)CCCC1(c2ccc(Cl)c(Cl)c2)OCc2ccccc21 (stereo not drawn) | 2300 | 13 | 29600 | – | – | – |
| CCCN(C)CCC[C@]1(c2ccc(F)cc2)OCc2cc(C#N)ccc21 | – | – | – | 2400 | 8.5 | 20300 |
| CN(C)CCCC1(c2ccc(F)cc2)OCc2c1ccc1ccccc21 (stereo not drawn) | 7800 | 4 | 31000 | – | – | – |
| CN(C)CCCC1(c2cc(Cl)cc(Cl)c2)OCc2ccccc21 (single isomer, unassigned; enantiomer 2) [listing 2 of 2 here] | 67 | – | – | – | – | – |
| CN(C)CCCC1(c2cccc3ccccc23)OCc2cc(C#N)ccc21 (single isomer, unassigned; enantiomer 2) [listing 1 of 2 here] | – | 280 | 19000 | – | – | – |
| CCCCN(C)CCC[C@]1(c2ccc(F)cc2)OCc2cc(C#N)ccc21 | – | – | – | 1100 | 13 | 14500 |
| CN(C)CCCC1(c2cccc3ccccc23)OCc2cc(C#N)ccc21 (stereo in doubt; 2) [listing 1 of 2 here] | – | 250 | 19000 | – | – | – |
| CN(C)CCCC1(c2ccc(F)cc2)OCc2cc3ccccc3cc21 (stereo not drawn) | 12000 | 8 | 95000 | – | – | – |
| CCCCN(C)CCC[C@@]1(c2ccc(F)cc2)OCc2cc(C#N)ccc21 | – | – | – | 160 | 18 | 2900 |
| CN(C)CCCC1(c2cccc3ccccc23)OCc2cc(C#N)ccc21 (single isomer, unassigned; enantiomer 2) [listing 2 of 2 here] | 68 | – | – | – | – | – |
| CN(C)CCCC1(c2ccc3ccccc3c2)OCc2cc(C#N)ccc21 (single isomer, unassigned) [listing 1 of 2 here] | 4100 | – | – | – | – | – |
| CN(C)CCCC1(c2ccc3ccccc3c2)OCc2cc(C#N)ccc21 (single isomer, unassigned) [listing 2 of 2 here] | – | 10 | 41000 | – | – | – |
| CN(C)CCCC1(c2cccc3ccccc23)OCc2cc(C#N)ccc21 (single isomer, unassigned; enantiomer 1) [listing 1 of 2 here] | – | 740 | 14000 | – | – | – |
| CCN(C)CCC[C@@]1(c2ccc(F)cc2)OCc2cc(C#N)ccc21 | – | – | – | 280 | 28 | 7700 |
| CN(C)CCCC1(c2ccc3ccccc3c2)OCc2cc(C#N)ccc21 (stereo in doubt; 1) [listing 2 of 2 here] | – | 34 | 68000 | – | – | – |
| CN(C)CCCC(=O)c1ccc2c(c1)COC2(CCCN(C)C)c1ccc(F)cc1 (stereo not drawn) | 450000 | 1.6 | 714000 | – | – | – |
| CN(C)CCCC1(c2cc(Cl)cc(Cl)c2)OCc2ccccc21 (single isomer, unassigned; enantiomer 1) [listing 1 of 2 here] | – | 350 | 8800 | – | – | – |
| CN(C)CCCC1(c2cccc3ccccc23)OCc2cc(C#N)ccc21 (stereo in doubt; 2) [listing 2 of 2 here] | 76 | – | – | – | – | – |
| CCCCCN(C)CCC[C@@]1(c2ccc(F)cc2)OCc2cc(C#N)ccc21 | – | – | – | 75 | 21 | 1600 |
| CN(C)CCCC1(c2ccc3ccccc3c2)OCc2cc(C#N)ccc21 (single isomer, unassigned; enantiomer 2) [listing 1 of 2 here] | 370 | – | – | – | – | – |
| CN(C)CCCC1(c2ccc3ccccc3c2)OCc2cc(C#N)ccc21 (single isomer, unassigned; enantiomer 2) [listing 2 of 2 here] | – | 150 | 55000 | – | – | – |
| CCCN(C)CCC[C@@]1(c2ccc(F)cc2)OCc2cc(C#N)ccc21 | – | – | – | 190 | 31 | 5900 |
| CN(C)CCCC1(c2cc(Cl)cc(Cl)c2)OCc2ccccc21 (single isomer, unassigned; enantiomer 1) [listing 2 of 2 here] | 25 | – | – | – | – | – |
| CN(C)CCCC1(c2cccc3ccccc23)OCc2cc(C#N)ccc21 (single isomer, unassigned; enantiomer 1) [listing 2 of 2 here] | 19 | – | – | – | – | – |
| CCN(C)CCC[C@]1(c2ccc(F)cc2)OCc2cc(C#N)ccc21 | – | – | – | 2300 | 8.7 | 19900 |
| CN(C)CCCC1(c2cc(Cl)cc(Cl)c2)OCc2ccccc21 (stereo in doubt; 4) [listing 2 of 2 here] | – | 340 | 15000 | – | – | – |
